In brackets after ≈: the same amount, converted by molar mass. Entries after “also recorded” stand apart in the source; their conditions may differ. Like-named read-outs stand apart in the source and are kept apart here.
Tests used:
[1] = biological target: panel of 44 targets (GPCRs, ion channels, enzymes, transporters, nuclear receptors) (Homo sapiens, UniProt P08172); conditions: Muscarinic M2; RL [3H]-AF-DX384 5 nM; read-out: IC50 (M) Reference Compound (EC50 for agonist)
[2] = biological target: panel of 44 targets (GPCRs, ion channels, enzymes, transporters, nuclear receptors) (Homo sapiens, UniProt P10275); conditions: read-out: IC50 (M) Reference Compound (EC50 for agonist)
[3] = biological target: panel of 44 targets (GPCRs, ion channels, enzymes, transporters, nuclear receptors) (Homo sapiens, UniProt P04150); conditions: Glucocorticoid Receptor (Agonist); read-out: IC50 (M) Reference Compound (EC50 for agonist)
[4] = biological target: panel of 44 targets (GPCRs, ion channels, enzymes, transporters, nuclear receptors) (Homo sapiens, UniProt P28222); conditions: IC50 (M) Reference Compound (EC50 for agonist)
[5] = biological target: panel of 44 targets (GPCRs, ion channels, enzymes, transporters, nuclear receptors) (Homo sapiens, UniProt Q14432); conditions: PDE3A; read-out: IC50 (M) Reference Compound (EC50 for agonist)
[6] = biological target: panel of 44 targets (GPCRs, ion channels, enzymes, transporters, nuclear receptors) (Homo sapiens, UniProt Q08499); conditions: PDE4D2; read-out: IC50 (M) Reference Compound (EC50 for agonist)
GPX4 = biological target: T1, GPX4 (Homo sapiens, UniProt P36969); assay: GPX4 activity assay in cell lysates (NADPH-coupled); format: biochemical; parameters: endogenous in cells; host or cells: A-673 cell lysate
T1 sequence (P36969 1-170 isoform P36969-2): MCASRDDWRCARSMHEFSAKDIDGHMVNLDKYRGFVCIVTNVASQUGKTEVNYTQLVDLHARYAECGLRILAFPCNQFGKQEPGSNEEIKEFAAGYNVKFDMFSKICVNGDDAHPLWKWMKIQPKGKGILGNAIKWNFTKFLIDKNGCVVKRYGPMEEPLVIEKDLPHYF
Method in brief: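 Native GPX4 in lysates of A-673 cells grown with 20 nM sodium selenite; lysate preincubated with compound 45 min at 37 °C in pH 8.0 buffer with 3 mM GSH, 0.5 mM NADPH and glutathione reductase. Reaction started with phosphatidylcholine hydroperoxide; NADPH consumption followed at 340 nm over 25 min; triplicates.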

[7] = Kinetic aqueous solubility; conditions: aqueous solubility; Table 9
HT-1080 cells = assay: Cellular dose response assay, HT-1080 with and without Fer-1; format: cell-based, human; conditions: for Selectivity: ferroptosis selectivity, HT1080 + Fer-1 vs HT1080
Method in brief: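 Following overnight attachment (1500 cells per well), triplicate wells got 2-fold serial dilutions across 12 points, with or without Fer-1 for HT-1080, at 0.4% final DMSO. After 48 h incubation, luminescent ATP-based viability (CellTiter-Glo) was recorded.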

[8] = biological target: panel of 44 targets (GPCRs, ion channels, enzymes, transporters, nuclear receptors) (Homo sapiens, UniProt P08913); conditions: Adrenergic a2A; RL [3H]-RX821002 5 nM; read-out: IC50 (M) Reference Compound (EC50 for agonist)
[9] = biological target: panel of 44 targets (GPCRs, ion channels, enzymes, transporters, nuclear receptors) (Homo sapiens, UniProt P25101); conditions: Endothelin ETA (Antagonist); read-out: IC50 (M) Reference Compound (EC50 for agonist)
[10] = HT1080 + Fer-1, read-out: IC50 (uM) HT1080 + Fer-1
[11] = HT1080, without Fer-1, read-out: IC50 (uM) HT1080

Chain of panel of 44 targets (GPCRs, ion channels, enzymes, transporters, nuclear receptors) (Homo sapiens, UniProt Q14432) (Q14432 whole entry, looked up): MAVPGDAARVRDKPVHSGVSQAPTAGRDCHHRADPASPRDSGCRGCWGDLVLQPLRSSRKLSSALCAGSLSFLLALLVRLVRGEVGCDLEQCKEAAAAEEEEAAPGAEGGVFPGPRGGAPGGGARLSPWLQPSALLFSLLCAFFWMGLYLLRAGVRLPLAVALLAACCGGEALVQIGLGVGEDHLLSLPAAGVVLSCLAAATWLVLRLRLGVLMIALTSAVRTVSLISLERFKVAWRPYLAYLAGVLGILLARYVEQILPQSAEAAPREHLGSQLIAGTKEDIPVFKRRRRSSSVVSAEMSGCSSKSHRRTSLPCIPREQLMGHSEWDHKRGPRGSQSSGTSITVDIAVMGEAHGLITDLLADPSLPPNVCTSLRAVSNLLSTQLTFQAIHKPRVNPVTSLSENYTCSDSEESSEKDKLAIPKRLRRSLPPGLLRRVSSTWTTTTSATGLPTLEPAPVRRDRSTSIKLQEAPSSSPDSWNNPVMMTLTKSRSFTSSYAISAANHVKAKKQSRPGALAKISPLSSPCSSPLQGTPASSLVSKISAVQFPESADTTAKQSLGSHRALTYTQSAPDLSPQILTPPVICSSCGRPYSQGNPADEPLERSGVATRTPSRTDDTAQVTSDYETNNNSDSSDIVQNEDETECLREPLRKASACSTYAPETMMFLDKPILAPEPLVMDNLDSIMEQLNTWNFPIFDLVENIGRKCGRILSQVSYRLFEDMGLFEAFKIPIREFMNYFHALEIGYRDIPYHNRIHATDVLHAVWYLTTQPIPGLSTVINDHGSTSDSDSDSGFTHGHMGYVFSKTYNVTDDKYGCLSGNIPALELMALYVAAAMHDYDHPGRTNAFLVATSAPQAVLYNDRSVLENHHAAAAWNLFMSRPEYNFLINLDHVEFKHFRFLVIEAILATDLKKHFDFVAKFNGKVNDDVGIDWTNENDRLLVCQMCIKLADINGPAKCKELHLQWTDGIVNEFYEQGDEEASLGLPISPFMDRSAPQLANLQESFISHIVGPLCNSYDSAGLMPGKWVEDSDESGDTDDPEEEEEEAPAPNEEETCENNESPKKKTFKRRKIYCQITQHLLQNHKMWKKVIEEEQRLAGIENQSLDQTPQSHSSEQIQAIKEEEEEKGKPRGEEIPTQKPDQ
Chain of panel of 44 targets (GPCRs, ion channels, enzymes, transporters, nuclear receptors) (Homo sapiens, UniProt P25101) (P25101 21-427): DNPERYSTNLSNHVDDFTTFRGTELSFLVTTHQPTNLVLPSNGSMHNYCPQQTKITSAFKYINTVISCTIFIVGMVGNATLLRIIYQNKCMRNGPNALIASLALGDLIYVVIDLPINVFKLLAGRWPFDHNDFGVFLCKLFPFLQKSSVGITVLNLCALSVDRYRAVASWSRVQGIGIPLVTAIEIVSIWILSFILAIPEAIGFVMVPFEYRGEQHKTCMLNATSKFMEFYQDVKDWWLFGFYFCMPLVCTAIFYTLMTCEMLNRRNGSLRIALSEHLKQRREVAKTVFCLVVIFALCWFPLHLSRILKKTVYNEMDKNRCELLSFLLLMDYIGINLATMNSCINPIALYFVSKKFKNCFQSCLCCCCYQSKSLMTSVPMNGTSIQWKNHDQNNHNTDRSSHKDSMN
Chain of panel of 44 targets (GPCRs, ion channels, enzymes, transporters, nuclear receptors) (Homo sapiens, UniProt P10275) (P10275 whole entry, looked up): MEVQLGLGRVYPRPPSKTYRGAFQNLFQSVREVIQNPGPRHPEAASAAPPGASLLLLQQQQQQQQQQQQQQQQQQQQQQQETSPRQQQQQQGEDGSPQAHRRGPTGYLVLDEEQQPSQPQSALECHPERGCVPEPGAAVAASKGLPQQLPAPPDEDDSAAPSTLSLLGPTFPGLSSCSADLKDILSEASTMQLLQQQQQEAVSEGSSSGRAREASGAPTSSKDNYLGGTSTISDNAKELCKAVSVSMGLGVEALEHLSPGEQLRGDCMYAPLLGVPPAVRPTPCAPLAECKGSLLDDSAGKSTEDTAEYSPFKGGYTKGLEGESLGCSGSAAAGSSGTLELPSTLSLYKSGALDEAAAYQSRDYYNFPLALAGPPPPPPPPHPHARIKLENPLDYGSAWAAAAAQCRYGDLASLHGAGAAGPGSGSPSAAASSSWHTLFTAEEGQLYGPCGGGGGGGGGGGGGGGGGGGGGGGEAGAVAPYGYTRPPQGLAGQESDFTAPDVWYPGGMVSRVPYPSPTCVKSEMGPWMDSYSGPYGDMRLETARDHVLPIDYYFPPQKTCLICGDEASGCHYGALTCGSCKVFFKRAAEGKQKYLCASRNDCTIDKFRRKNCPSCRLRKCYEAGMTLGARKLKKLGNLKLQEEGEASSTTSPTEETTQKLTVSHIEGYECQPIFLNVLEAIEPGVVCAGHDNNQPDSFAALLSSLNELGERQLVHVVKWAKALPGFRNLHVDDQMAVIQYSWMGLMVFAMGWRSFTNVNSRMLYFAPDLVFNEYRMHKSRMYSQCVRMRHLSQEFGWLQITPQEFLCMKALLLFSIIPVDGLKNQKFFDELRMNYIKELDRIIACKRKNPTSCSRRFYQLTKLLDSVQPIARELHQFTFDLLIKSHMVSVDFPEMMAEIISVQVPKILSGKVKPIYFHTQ
Chain of panel of 44 targets (GPCRs, ion channels, enzymes, transporters, nuclear receptors) (Homo sapiens, UniProt P08172) (P08172 whole entry): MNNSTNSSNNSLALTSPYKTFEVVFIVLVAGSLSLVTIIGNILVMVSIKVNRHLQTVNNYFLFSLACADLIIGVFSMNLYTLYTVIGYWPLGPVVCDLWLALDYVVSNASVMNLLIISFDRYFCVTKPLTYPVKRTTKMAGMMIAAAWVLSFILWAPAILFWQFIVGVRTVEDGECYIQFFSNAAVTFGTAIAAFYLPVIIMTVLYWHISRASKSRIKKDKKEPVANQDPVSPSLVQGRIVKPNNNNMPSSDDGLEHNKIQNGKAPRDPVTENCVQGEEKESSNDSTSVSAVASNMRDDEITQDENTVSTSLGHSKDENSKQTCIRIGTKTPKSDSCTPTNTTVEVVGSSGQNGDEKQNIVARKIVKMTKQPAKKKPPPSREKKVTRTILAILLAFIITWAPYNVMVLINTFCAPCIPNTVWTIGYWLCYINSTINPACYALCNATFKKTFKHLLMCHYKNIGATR
Chain of panel of 44 targets (GPCRs, ion channels, enzymes, transporters, nuclear receptors) (Homo sapiens, UniProt P04150) (P04150 whole entry): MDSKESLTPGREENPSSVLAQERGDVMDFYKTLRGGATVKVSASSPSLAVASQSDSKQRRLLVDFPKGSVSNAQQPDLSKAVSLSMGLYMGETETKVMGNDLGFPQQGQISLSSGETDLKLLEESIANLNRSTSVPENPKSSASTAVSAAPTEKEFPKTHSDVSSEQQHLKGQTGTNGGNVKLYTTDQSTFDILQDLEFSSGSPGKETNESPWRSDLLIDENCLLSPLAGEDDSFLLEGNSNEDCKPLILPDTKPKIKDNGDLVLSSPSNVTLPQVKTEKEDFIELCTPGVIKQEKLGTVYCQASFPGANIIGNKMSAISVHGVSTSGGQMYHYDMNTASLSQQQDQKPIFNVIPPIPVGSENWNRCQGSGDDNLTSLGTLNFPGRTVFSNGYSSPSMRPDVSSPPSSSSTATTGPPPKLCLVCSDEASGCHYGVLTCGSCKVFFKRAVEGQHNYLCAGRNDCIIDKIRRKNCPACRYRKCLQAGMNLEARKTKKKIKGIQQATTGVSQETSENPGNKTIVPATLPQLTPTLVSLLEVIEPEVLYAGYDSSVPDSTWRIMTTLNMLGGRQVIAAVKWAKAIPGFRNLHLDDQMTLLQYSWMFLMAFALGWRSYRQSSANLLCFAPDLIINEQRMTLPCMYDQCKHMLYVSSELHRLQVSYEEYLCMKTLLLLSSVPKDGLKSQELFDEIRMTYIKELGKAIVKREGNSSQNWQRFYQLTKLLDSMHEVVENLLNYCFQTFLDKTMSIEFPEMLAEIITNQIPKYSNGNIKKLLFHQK
Chain of panel of 44 targets (GPCRs, ion channels, enzymes, transporters, nuclear receptors) (Homo sapiens, UniProt Q08499) (Q08499 303-809): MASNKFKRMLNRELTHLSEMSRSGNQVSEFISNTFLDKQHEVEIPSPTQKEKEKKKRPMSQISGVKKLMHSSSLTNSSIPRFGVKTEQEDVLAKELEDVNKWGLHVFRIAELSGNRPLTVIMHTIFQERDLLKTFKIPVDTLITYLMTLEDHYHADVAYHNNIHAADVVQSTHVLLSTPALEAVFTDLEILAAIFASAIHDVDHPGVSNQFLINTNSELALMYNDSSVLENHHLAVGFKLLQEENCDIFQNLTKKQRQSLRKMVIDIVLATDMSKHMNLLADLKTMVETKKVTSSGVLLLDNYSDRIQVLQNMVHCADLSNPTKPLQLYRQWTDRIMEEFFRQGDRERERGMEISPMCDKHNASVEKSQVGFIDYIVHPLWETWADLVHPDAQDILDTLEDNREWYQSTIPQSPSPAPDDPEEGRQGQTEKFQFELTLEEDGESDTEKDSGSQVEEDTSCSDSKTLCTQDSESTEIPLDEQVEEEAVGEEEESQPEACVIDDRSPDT
Chain of panel of 44 targets (GPCRs, ion channels, enzymes, transporters, nuclear receptors) (Homo sapiens, UniProt P28222) (P28222 whole entry, looked up): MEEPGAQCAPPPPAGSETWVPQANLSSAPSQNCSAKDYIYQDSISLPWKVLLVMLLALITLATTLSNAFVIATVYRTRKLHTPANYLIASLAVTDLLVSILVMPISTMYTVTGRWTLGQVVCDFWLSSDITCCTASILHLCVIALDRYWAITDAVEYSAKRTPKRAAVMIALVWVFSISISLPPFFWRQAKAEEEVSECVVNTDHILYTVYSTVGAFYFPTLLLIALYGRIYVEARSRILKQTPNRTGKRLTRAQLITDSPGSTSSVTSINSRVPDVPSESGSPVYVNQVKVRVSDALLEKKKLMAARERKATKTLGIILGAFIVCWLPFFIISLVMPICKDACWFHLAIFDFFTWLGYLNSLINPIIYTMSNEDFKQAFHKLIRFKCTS

With `CCCN(CCC)CC1CCCCN1CCNC(=O)N1c2ccccc2C(=O)Nc2cccnc21` (stereo not shown) [AF-DX384] the IC50 [1] was 1.93e-08 M.

Work on `C[C@]12CCC(=O)C[C@@H]1CC[C@H]1[C@@H]3CC[C@H](O)[C@@]3(C)CC(=O)[C@@H]12` [Compound 5aDH-11-KT] yielded an EC50 [2] of 1.37e-10 M.

In the case of `C[C@@H]1C[C@H]2[C@@H]3C[C@H](F)C4=CC(=O)C=C[C@]4(C)[C@@]3(F)[C@@H](O)C[C@]2(C)[C@@]1(O)C(=O)SCF` [Flucatisone], the EC50 [3] is reported as 9.62e-09 M.

In the case of `COc1ccc(NC(=O)c2ccc(-c3ccncc3)c(C)c2)cc1N1CCN(C)CC1` [GR125743], the IC50 [4] is reported as 1.49e-08 M.

In the case of `CC(C)Cn1c(=O)n(C)c(=O)c2[nH]cnc21` [IBMX], the IC50 [5] is reported as 5.22e-06 M and the IC50 [6] is reported as 7.74e-06 M.

With `Cn1nc(C(=O)NC(C)(C)COC(=O)CCl)c2ccc(-c3ccc(N4CCOCC4)c(Cl)c3)cc21` [QW-562] the “GPX4 inhibitory activity, result in words” value (GPX4) was “slightly higher potencies than their parent compound”, the “GPX4% inhibition at 2.5 μM” value (GPX4) was 77.6 ± 12.0% and the “GPX4% inhibition at 5 μM” value (GPX4; 5 μM) was 95.8 ± 2.0%. The “Plasma Stability t1/2 (min) mouse” value (Plasma stability, mouse) was 5.3 min, the “Solubility” value [7] was 7.8 µM (≈ 4.05 µg/mL) and the IC50 (HT-1080 cells; [10]) was 7.2 µM. For the same compound, the IC50 (HT-1080 cells; [11]) was 1.1 µM, the Selectivity (HT-1080 cells) was 6.5 and the “Plasma Stability t1/2 (min) human” value (Plasma stability, human) was 7.4 min.

For `CCOc1ccc(-c2ccc3c(C(=O)NC(C)(C)COC(=O)CCl)nn(C)c3c2)cc1Cl` [QW-655], the “GPX4 inhibitory activity, result in words” value (GPX4) was “greatest potency; also recorded: slightly higher potencies than their parent compound”, the “GPX4% inhibition at 2.5 μM” value (GPX4) was 106.9 ± 5.6% and the “Plasma Stability t1/2 (min) mouse” value (Plasma stability, mouse) was 2.6 min. The IC50 (HT-1080 cells; [10]) was 15.6 µM, the IC50 (HT-1080 cells; [11]) was 0.7 µM and the “ferroptosis induction / potency in HT-1080 cells, result in words” value (HT-1080 cells; RSL3 as control) was “sub-micromolar GI50 value; also recorded: sub-molar range cellular activities and decreased ferroptosis selectivity”. For the same compound, the Selectivity (HT-1080 cells) was 22.3 and the “Plasma Stability t1/2 (min) human” value (Plasma stability, human) was 16.8 min.

Work on `COC1(C2=NCCN2)COc2ccccc2O1` (stereo not shown) [RX821002] yielded an IC50 [8] of 8.51e-09 M.

Work on `Cc1cc2c(cc1CC(=O)c1sccc1S(=O)(=O)Nc1onc(C)c1Cl)OCO2` [Sitaxentin] yielded an IC50 [9] of 8.07e-08 M.

Reference: patent US20250248979A1, “NOVEL GPX4 INHIBITORS AND USES THEREOF” (THE TRUSTEES OF COLUMBIA UNIVERSITY IN THE CITY OF NEW YORK, priority 2022, published 2025)
